According to ChEMBL document CHEMBL4507283, “Data for DCP probe BI-1935” (2021):

Experiments:
[1] = molecular target: Opioid receptor (Rattus norvegicus) (UniProt P33533+P34975+P33535); assay: OPIAT/NS Eurofins-Panlabs selectivity data (BI); format: protein assay; conditions: Compound concentration 10.0 uM
[2] = molecular target: Activin receptor type-2B (Homo sapiens) (UniProt Q13705); conditions: Compound concentration 1000.0 nM
[3] = molecular target: Aurora kinase A (Homo sapiens) (UniProt O14965); conditions: Compound concentration 1000.0 nM
[4] = molecular target: Bone morphogenetic protein receptor type-1B (Homo sapiens) (UniProt O00238); conditions: Compound concentration 1000.0 nM
[5] = tested on: Epidermal growth factor receptor (Homo sapiens), P00533 [UNDEFINED MUTATION]; conditions: Compound concentration 1000.0 nM
Epidermal growth factor receptor (Homo sapiens), P00533 [UNDEFINED MUTATION], sequence (P00533 whole entry, looked up, change not shown): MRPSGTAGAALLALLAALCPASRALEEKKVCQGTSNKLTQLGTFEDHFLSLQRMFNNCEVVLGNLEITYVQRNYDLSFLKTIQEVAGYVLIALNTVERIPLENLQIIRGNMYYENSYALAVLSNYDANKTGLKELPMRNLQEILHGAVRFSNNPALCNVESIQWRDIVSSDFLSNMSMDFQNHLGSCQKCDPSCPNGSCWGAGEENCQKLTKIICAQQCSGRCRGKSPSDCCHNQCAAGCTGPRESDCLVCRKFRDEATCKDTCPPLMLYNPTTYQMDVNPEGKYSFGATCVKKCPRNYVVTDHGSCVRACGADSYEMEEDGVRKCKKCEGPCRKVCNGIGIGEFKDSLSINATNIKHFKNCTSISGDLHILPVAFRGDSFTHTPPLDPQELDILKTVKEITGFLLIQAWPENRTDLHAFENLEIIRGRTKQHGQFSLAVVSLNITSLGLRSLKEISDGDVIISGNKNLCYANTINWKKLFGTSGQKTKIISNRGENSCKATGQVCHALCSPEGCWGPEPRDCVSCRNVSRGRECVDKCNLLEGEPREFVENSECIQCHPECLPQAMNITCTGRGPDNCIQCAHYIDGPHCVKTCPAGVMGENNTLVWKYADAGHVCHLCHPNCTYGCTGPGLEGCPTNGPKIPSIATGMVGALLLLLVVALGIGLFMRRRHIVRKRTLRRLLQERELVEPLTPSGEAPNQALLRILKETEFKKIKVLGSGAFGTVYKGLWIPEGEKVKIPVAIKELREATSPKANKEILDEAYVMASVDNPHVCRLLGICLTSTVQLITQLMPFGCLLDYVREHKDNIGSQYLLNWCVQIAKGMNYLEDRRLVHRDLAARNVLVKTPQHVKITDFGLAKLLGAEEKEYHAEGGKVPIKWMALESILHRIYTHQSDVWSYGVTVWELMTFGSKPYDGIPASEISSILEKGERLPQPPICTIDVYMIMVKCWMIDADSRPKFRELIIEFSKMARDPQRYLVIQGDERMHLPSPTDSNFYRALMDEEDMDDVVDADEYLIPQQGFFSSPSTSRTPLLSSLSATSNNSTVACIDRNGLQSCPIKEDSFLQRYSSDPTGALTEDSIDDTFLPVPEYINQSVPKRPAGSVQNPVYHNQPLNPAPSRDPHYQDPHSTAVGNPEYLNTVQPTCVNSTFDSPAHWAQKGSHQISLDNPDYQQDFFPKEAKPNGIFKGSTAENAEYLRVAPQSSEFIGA

[6] = molecular target: Ephrin type-A receptor 1 (Homo sapiens) (UniProt P21709); conditions: Compound concentration 1000.0 nM
Ephrin type-A receptor 1 (Homo sapiens), sequence (P21709 whole entry): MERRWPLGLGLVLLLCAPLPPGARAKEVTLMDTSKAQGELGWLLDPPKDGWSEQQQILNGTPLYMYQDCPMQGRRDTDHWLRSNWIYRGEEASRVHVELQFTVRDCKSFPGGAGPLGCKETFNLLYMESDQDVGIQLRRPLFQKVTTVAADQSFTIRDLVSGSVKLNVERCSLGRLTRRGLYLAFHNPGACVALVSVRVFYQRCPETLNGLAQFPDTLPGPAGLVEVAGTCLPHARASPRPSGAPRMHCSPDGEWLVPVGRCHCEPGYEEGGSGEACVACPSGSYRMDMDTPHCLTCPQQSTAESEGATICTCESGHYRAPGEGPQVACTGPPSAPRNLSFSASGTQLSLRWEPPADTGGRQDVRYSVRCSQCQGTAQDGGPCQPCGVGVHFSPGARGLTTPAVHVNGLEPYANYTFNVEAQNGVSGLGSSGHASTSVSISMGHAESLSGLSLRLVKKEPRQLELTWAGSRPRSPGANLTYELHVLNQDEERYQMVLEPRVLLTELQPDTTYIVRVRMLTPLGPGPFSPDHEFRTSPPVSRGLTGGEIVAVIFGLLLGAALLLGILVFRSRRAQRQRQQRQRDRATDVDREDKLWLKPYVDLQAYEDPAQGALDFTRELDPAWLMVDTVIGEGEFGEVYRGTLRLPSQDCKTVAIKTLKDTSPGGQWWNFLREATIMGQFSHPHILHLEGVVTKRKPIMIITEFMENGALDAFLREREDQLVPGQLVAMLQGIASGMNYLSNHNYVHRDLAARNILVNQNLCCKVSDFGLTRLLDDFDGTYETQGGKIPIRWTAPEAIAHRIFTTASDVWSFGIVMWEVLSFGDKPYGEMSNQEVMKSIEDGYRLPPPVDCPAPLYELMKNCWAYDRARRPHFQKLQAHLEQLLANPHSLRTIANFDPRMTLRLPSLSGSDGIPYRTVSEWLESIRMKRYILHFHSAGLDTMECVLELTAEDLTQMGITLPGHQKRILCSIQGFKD

[7] = molecular target: Tyrosine-protein kinase Fer (Homo sapiens) (UniProt P16591); conditions: Compound concentration 1000.0 nM
[8] = tested on: Receptor-type tyrosine-protein kinase FLT3 (Homo sapiens), P36888 [UNDEFINED MUTATION]; conditions: Compound concentration 1000.0 nM
[9] = tested on: Receptor-type tyrosine-protein kinase FLT3 (Homo sapiens), P36888 [K663Q]; conditions: Compound concentration 1000.0 nM
[10] = molecular target: Vascular endothelial growth factor receptor 3 (Homo sapiens) (UniProt P35916); conditions: Compound concentration 1000.0 nM
[11] = molecular target: Tyrosine-protein kinase Fyn (Homo sapiens) (UniProt P06241); conditions: Compound concentration 1000.0 nM
[12] = molecular target: Beta-adrenergic receptor kinase 1 (Homo sapiens) (UniProt P25098); conditions: Compound concentration 1000.0 nM
[13] = molecular target: Insulin receptor (Homo sapiens) (UniProt P06213); conditions: Compound concentration 1000.0 nM
[14] = tested on: Mast/stem cell growth factor receptor Kit (Homo sapiens), P10721 [V559D,T670I]; conditions: Compound concentration 1000.0 nM
[15] = tested on: Mast/stem cell growth factor receptor Kit (Homo sapiens), P10721 [V559D,V654A]; conditions: Compound concentration 1000.0 nM
[16] = molecular target: Leukocyte tyrosine kinase receptor (Homo sapiens) (UniProt P29376); conditions: Compound concentration 1000.0 nM
[17] = molecular target: Mitogen-activated protein kinase kinase kinase 13 (Homo sapiens) (UniProt O43283); conditions: Compound concentration 1000.0 nM
[18] = molecular target: MAP kinase-interacting serine/threonine-protein kinase 1 (Homo sapiens) (UniProt Q9BUB5); conditions: Compound concentration 1000.0 nM
[19] = molecular target: MAP kinase-interacting serine/threonine-protein kinase 2 (Homo sapiens) (UniProt Q9HBH9); conditions: Compound concentration 1000.0 nM
[20] = molecular target: Macrophage-stimulating protein receptor (Homo sapiens) (UniProt Q04912); conditions: Compound concentration 1000.0 nM
[21] = molecular target: Serine/threonine-protein kinase Nek11 (Homo sapiens) (UniProt Q8NG66); conditions: Compound concentration 1000.0 nM
[22] = molecular target: Mitogen-activated protein kinase 11 (Homo sapiens) (UniProt Q15759); conditions: Compound concentration 1000.0 nM
[23] = molecular target: Calcium-dependent protein kinase 1 (Plasmodium falciparum) (UniProt P62344); conditions: Compound concentration 1000.0 nM
[24] = molecular target: Cyclin-dependent kinase 15 (Homo sapiens) (UniProt Q96Q40); conditions: Compound concentration 1000.0 nM
[25] = molecular target: Cyclin-dependent kinase 14 (Homo sapiens) (UniProt O94921); conditions: Compound concentration 1000.0 nM
[26] = tested on: Phosphatidylinositol 4,5-bisphosphate 3-kinase catalytic subunit alpha isoform (Homo sapiens), P42336 [C420R]; conditions: Compound concentration 1000.0 nM
[27] = molecular target: Phosphatidylinositol 4,5-bisphosphate 3-kinase catalytic subunit gamma isoform (Homo sapiens) (UniProt P48736); conditions: Compound concentration 1000.0 nM
[28] = molecular target: cAMP-dependent protein kinase catalytic subunit beta (Homo sapiens) (UniProt P22694); conditions: Compound concentration 1000.0 nM
[29] = molecular target: Serine/threonine-protein kinase N2 (Homo sapiens) (UniProt Q16513); conditions: Compound concentration 1000.0 nM
[30] = molecular target: Serine/threonine-protein kinase D1 (Homo sapiens) (UniProt Q15139); conditions: Compound concentration 1000.0 nM
[31] = molecular target: cAMP-dependent protein kinase catalytic subunit PRKX (Homo sapiens) (UniProt P51817); conditions: Compound concentration 1000.0 nM
[32] = tested on: Proto-oncogene tyrosine-protein kinase receptor Ret (Homo sapiens), P07949 [V804L]; conditions: Compound concentration 1000.0 nM
Proto-oncogene tyrosine-protein kinase receptor Ret (Homo sapiens), P07949 [V804L], sequence (P07949 whole entry V804L): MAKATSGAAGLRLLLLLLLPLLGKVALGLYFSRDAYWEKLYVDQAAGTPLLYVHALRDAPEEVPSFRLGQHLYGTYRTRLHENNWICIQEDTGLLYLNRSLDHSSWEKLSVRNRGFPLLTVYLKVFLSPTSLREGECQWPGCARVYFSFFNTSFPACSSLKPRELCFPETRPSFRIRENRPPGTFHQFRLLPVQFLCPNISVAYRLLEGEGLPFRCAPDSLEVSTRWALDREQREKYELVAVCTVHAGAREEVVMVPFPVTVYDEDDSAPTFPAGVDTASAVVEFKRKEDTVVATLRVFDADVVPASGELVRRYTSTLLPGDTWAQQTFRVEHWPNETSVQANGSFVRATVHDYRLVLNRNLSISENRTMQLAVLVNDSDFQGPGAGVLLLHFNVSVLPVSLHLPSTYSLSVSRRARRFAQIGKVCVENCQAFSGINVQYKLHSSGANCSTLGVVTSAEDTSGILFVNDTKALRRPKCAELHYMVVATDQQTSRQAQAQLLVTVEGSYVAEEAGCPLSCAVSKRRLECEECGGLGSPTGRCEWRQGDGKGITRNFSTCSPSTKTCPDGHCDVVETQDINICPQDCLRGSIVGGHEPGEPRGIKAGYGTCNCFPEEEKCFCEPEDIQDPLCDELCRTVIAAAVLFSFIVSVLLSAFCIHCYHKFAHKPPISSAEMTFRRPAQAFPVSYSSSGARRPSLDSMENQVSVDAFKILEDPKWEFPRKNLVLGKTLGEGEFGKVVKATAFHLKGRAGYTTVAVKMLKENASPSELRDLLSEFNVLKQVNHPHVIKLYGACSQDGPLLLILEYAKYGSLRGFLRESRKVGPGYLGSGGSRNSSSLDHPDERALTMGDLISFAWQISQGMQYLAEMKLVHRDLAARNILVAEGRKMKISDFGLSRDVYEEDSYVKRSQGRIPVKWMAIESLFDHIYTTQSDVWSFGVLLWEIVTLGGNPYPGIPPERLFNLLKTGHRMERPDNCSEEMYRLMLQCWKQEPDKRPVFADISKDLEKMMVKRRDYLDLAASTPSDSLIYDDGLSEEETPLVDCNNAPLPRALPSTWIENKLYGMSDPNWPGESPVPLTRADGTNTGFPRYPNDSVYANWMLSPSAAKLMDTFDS

[33] = molecular target: Serine/threonine-protein kinase RIO1 (Homo sapiens) (UniProt Q9BRS2); conditions: Compound concentration 1000.0 nM
[34] = molecular target: Serine/threonine-protein kinase RIO2 (Homo sapiens) (UniProt Q9BVS4); conditions: Compound concentration 1000.0 nM
Serine/threonine-protein kinase RIO2 (Homo sapiens), sequence (Q9BVS4 whole entry, looked up): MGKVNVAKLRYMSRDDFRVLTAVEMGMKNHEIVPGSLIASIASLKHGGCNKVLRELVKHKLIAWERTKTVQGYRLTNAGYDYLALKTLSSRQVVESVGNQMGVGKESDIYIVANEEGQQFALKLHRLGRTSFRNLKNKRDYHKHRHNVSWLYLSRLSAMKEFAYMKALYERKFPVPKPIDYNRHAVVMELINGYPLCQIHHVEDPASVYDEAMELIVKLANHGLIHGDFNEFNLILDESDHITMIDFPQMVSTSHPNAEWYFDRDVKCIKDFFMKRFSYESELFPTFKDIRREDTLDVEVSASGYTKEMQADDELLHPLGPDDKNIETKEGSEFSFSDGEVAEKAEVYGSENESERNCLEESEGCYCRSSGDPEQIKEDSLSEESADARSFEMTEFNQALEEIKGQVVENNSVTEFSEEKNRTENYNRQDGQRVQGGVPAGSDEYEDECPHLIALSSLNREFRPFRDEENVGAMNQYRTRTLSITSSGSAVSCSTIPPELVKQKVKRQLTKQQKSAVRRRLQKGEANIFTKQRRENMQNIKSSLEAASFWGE

[35] = molecular target: Ribosomal protein S6 kinase alpha-4 (Homo sapiens) (UniProt O75676); conditions: Compound concentration 1000.0 nM
[36] = molecular target: Serine/threonine-protein kinase SBK1 (Homo sapiens) (UniProt Q52WX2); conditions: Compound concentration 1000.0 nM
[37] = molecular target: Serine/threonine-protein kinase Sgk3 (Homo sapiens) (UniProt Q96BR1); conditions: Compound concentration 1000.0 nM
[38] = molecular target: Tyrosine-protein kinase Tec (Homo sapiens) (UniProt P42680); conditions: Compound concentration 1000.0 nM
[39] = molecular target: Vascular endothelial growth factor receptor 2 (Homo sapiens) (UniProt P35968); conditions: Compound concentration 1000.0 nM
[40] = molecular target: Tyrosine-protein kinase Yes (Homo sapiens) (UniProt P07947); conditions: Compound concentration 1000.0 nM
Tyrosine-protein kinase Yes (Homo sapiens), sequence (P07947 2-543 limits assumed): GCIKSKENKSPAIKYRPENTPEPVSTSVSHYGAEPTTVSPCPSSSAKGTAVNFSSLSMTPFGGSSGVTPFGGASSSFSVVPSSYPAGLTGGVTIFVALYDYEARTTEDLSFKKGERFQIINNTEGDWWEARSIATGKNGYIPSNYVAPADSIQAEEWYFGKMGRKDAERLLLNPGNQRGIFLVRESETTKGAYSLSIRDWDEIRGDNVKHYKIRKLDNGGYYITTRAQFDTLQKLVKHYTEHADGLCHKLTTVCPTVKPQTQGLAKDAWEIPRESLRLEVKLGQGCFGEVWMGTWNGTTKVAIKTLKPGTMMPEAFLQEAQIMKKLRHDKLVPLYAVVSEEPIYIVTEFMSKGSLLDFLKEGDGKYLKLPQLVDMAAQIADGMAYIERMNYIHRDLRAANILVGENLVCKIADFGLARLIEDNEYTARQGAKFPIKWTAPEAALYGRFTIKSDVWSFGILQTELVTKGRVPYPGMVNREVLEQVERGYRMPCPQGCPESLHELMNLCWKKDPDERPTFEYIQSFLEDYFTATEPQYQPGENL

[41] = molecular target: Serine/threonine-protein kinase 25 (Homo sapiens) (UniProt O00506); conditions: Compound concentration 1000.0 nM
[42] = molecular target: Sodium-dependent serotonin transporter (Homo sapiens) (UniProt P31645); conditions: Compound concentration 10.0 uM
Sodium-dependent serotonin transporter (Homo sapiens), sequence (P31645 whole entry, looked up): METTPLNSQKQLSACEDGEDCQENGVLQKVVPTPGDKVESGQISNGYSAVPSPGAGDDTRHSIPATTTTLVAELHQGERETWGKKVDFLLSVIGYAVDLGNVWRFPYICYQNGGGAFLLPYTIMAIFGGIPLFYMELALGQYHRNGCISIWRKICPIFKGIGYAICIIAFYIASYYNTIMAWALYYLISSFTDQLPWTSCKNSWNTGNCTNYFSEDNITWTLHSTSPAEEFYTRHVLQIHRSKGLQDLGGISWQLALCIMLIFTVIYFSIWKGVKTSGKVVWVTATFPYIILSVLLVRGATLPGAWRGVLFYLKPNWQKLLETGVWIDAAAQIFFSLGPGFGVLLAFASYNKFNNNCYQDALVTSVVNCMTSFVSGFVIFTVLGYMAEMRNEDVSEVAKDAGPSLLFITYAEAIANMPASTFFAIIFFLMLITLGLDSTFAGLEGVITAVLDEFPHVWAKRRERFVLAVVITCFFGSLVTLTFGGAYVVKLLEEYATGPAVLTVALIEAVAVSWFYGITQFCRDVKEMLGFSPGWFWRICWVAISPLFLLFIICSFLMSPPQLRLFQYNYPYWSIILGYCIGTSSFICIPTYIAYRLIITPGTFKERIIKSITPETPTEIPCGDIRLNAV

[43] = molecular target: Kappa-type opioid receptor (Homo sapiens) (UniProt P41145); conditions: Compound concentration 10.0 uM
[44] = molecular target: Histamine H4 receptor (Homo sapiens) (UniProt Q9H3N8); conditions: Compound concentration 10.0 uM
[45] = molecular target: Beta-1 adrenergic receptor (Homo sapiens) (UniProt P08588); conditions: Compound concentration 10.0 uM

CCOCCn1cc(C(=O)Nc2ccc(-n3nc(-c4cccnc4)cc3C(F)(F)F)cn2)ccc1=O [BI 1935]
inactive: residual activity [1] 99% | residual activity [2] 100% | residual activity [3] 85% | residual activity [4] 71% | residual activity [5] 92% | residual activity [6] 82% | residual activity [7] 100% | residual activity [8] 86% | residual activity [9] 98% | residual activity [10] 92% | residual activity [11] 53% | residual activity [12] 75% | residual activity [13] 98% | residual activity [14] 100% | residual activity [15] 100% | residual activity [16] 100% | residual activity [17] 100% | residual activity [18] 97% | residual activity [19] 100% | residual activity [20] 100% | residual activity [21] 96% | residual activity [22] 80% | residual activity [23] 71% | residual activity [24] 100% | residual activity [25] 100% | residual activity [26] 93% | residual activity [27] 100% | residual activity [28] 100% | residual activity [29] 100% | residual activity [30] 100% | residual activity [31] 100% | residual activity [32] 97% | residual activity [33] 100% | residual activity [34] 60% | residual activity [35] 100% | residual activity [36] 91% | residual activity [37] 65% | residual activity [38] 100% | residual activity [39] 81% | residual activity [40] 85% | residual activity [41] 95% | inhibition [42] 8.63% | inhibition [43] 3.2% | inhibition [44] 48.6% | inhibition [45] -9.69%
